Experimental data reported in ChEMBL document CHEMBL2390887, “Pyrazole derivatives as inhibitors of arachidonic acid-induced platelet aggregation” (Eur J Med Chem, 2013).
Calls of active or inactive are those of the source. The calls are words filed in the database; no cut-off is given here.

Test system: not listed separately
Assay: Antiplatelet activity in human platelet rich plasma assessed as inhibition of arachidonic acid-induced platelet aggregation preincubated for 3 mins before arachidonic acid challenge by turbidimetric method
Format: functional

Structure (SMILES) | IC50
O=C(c1cc(-c2ccc(Cl)cc2)n(-c2ccc(=O)[nH]n2)n1)N1CCCCC1 | 2.09 µM
COc1ccc(-n2nc(C(=O)N3CCN(c4ccc(C)cc4)CC3)cc2-c2ccc(Cl)cc2)nn1 | 4.67 µM
COc1ccc(NC(=O)c2cc(-c3ccc(Cl)cc3)n(-c3ccc(OC)nn3)n2)cc1 | 0.4 µM
COc1ccc(-c2onc(C(=O)N3CCCCC3)c2-c2ccc(Cl)cc2)cc1 | 5.03 µM
COc1ccc(-n2nc(C(=O)OCCC(C)C)cc2-c2ccc(Cl)cc2)nn1 | 1.33 µM
Cn1nc(-c2ccc(Cl)cc2)cc1C(=O)N1CCCCC1 | > 10 µM
CC(=O)Oc1ccccc1C(=O)O [ASPIRIN] | 7.76 µM
COc1ccc(-n2nc(C(=O)N3CCCCC3)cc2-c2ccc(Cl)cc2)cc1 | 0.0079 µM
COc1ccc(-n2nc(C(=O)N3CCOCC3)cc2C)nn1 | > 10 µM

Test system: not listed separately
Assay: Antiplatelet activity in human platelet rich plasma assessed as inhibition of arachidonic acid-induced platelet aggregation at 100 uM preincubated for 3 mins before arachidonic acid challenge by turbidimetric method
Format: functional

Structure (SMILES) | inhibition at 100 µM
CCOC(=O)c1cc(-c2ccc(Cl)cc2)n(-c2ccc(Cl)nn2)n1 | 67%

Test system: not listed separately
Assay: (§1) Antiplatelet activity in human platelet rich plasma assessed as inhibition of ADP-induced platelet aggregation at 10 uM preincubated for 3 mins before ADP challenge by turbidimetric method
Format: functional

Structure (SMILES) | inhibition at 10 µM
COc1ccc(-n2nc(C(=O)Oc3ccc4ccccc4c3)cc2-c2ccc(Cl)cc2)nn1 | 3.34%
COc1ccc(NC(=O)c2cc(-c3ccc(Cl)cc3)n(-c3ccc(OC)nn3)n2)cc1 | 3.92%
COc1ccc(-n2nc(C(=O)N3CCN(c4ncccn4)CC3)cc2-c2ccc(Cl)cc2)nn1 | 2.7%
COc1ccc(-n2nc(C(=O)OCCC(C)C)cc2-c2ccc(Cl)cc2)nn1 | 6.77%

Test system: Platelet
Assay: as §1
Format: functional

Structure (SMILES) | inhibition
COc1ccc(-n2nc(C(=O)Oc3cccc(C(C)C)c3)cc2-c2ccc(Cl)cc2)nn1 | inactive
COc1ccc(-n2nc(C(=O)Oc3ccc(C)cc3)cc2-c2ccc(Cl)cc2)nn1 | inactive
COc1ccc(OC(=O)c2cc(-c3ccc(Cl)cc3)n(-c3ccc(OC)nn3)n2)cc1 | inactive
CCCOc1ccc(OC(=O)c2cc(-c3ccc(Cl)cc3)n(-c3ccc(OC)nn3)n2)cc1 | inactive
COc1ccc(-n2nc(C(=O)Oc3ccc(-n4ccnc4)cc3)cc2-c2ccc(Cl)cc2)nn1 | inactive
COc1ccc(-n2nc(C(=O)N3CCN(c4ccc(C)cc4)CC3)cc2-c2ccc(Cl)cc2)nn1 | inactive
COc1ccc(-n2nc(C(=O)Oc3ccc(C4CCCC4)cc3)cc2-c2ccc(Cl)cc2)nn1 | inactive
COc1ccc(-n2nc(C(=O)Oc3cccnc3Cl)cc2-c2ccc(Cl)cc2)nn1 | inactive
COc1ccc(-n2nc(C(=O)N3CCN(c4ccc(F)cc4)CC3)cc2-c2ccc(Cl)cc2)nn1 | inactive

Test system: not listed separately
Assay: Antiplatelet activity in human platelet rich plasma assessed as inhibition of collagen-induced platelet aggregation at 1 uM preincubated for 3 mins before collagen challenge by turbidimetric method
Format: functional

Structure (SMILES) | inhibition at 1 µM
CCCOc1ccc(OC(=O)c2cc(-c3ccc(Cl)cc3)n(-c3ccc(OC)nn3)n2)cc1 | 32.2%
COc1ccc(NC(=O)c2cc(-c3ccc(Cl)cc3)n(-c3ccc(OC)nn3)n2)cc1 | 43.6%
COc1ccc(-n2nc(C(=O)OCCC(C)C)cc2-c2ccc(Cl)cc2)nn1 | 34.2%

Test system: not listed separately
Assay: (§2) Antiplatelet activity in human platelet rich plasma assessed as inhibition of arachidonic acid-induced platelet aggregation at 1 uM preincubated for 3 mins before arachidonic acid challenge by turbidimetric method
Format: functional

Structure (SMILES) | inhibition at 1 µM
COc1ccc(-n2nc(C(=O)Oc3cccc(C(C)C)c3)cc2-c2ccc(Cl)cc2)nn1 | 8.97%
COc1ccc(-n2nc(C(=O)Oc3ccc(C)cc3)cc2-c2ccc(Cl)cc2)nn1 | 23.6%
COc1ccc(OC(=O)c2cc(-c3ccc(Cl)cc3)n(-c3ccc(OC)nn3)n2)cc1 | 6.05%
CCCOc1ccc(OC(=O)c2cc(-c3ccc(Cl)cc3)n(-c3ccc(OC)nn3)n2)cc1 | 3.87%
COc1ccc(-n2nc(C(=O)Oc3ccc4ccccc4c3)cc2-c2ccc(Cl)cc2)nn1 | 2.36%
COc1ccc(-n2nc(C(=O)Oc3ccc(-n4ccnc4)cc3)cc2-c2ccc(Cl)cc2)nn1 | 5.25%
COc1ccc(-n2nc(C(=O)N3CCN(c4ccc(C)cc4)CC3)cc2-c2ccc(Cl)cc2)nn1 | 3.96%
COc1ccc(NC(=O)c2cc(-c3ccc(Cl)cc3)n(-c3ccc(OC)nn3)n2)cc1 | 94.2%
COc1ccc(-n2nc(C(=O)OCCC(C)C)cc2-c2ccc(Cl)cc2)nn1 | 19%

Test system: Platelet
Assay: as §2
Format: functional

Structure (SMILES) | inhibition
COc1ccc(-n2nc(C(=O)N3CCN(c4ncccn4)CC3)cc2-c2ccc(Cl)cc2)nn1 | inactive
COc1ccc(-n2nc(C(=O)Oc3ccc(C4CCCC4)cc3)cc2-c2ccc(Cl)cc2)nn1 | inactive
COc1ccc(-n2nc(C(=O)Oc3cccnc3Cl)cc2-c2ccc(Cl)cc2)nn1 | inactive
COc1ccc(-n2nc(C(=O)N3CCN(c4ccc(F)cc4)CC3)cc2-c2ccc(Cl)cc2)nn1 | inactive

Test system: not listed separately
Assay: (§3) Antiplatelet activity in human platelet rich plasma assessed as inhibition of arachidonic acid-induced platelet aggregation at 10 uM preincubated for 3 mins before arachidonic acid challenge by turbidimetric method
Format: functional

Structure (SMILES) | inhibition at 10 µM
COc1ccc(-n2nc(C(=O)Oc3cccc(C(C)C)c3)cc2-c2ccc(Cl)cc2)nn1 | 84%
COc1ccc(-n2nc(C(=O)Oc3ccc(C)cc3)cc2-c2ccc(Cl)cc2)nn1 | 95%
COc1ccc(OC(=O)c2cc(-c3ccc(Cl)cc3)n(-c3ccc(OC)nn3)n2)cc1 | 84.2%
CCCOc1ccc(OC(=O)c2cc(-c3ccc(Cl)cc3)n(-c3ccc(OC)nn3)n2)cc1 | 93%
COc1ccc(-n2nc(C(=O)Oc3ccc4ccccc4c3)cc2-c2ccc(Cl)cc2)nn1 | 86.3%
COc1ccc(-n2nc(C(=O)Oc3ccc(-n4ccnc4)cc3)cc2-c2ccc(Cl)cc2)nn1 | 90%
COc1ccc(-n2nc(C(=O)N3CCN(c4ccc(C)cc4)CC3)cc2-c2ccc(Cl)cc2)nn1 | 97.6%
COc1ccc(NC(=O)c2cc(-c3ccc(Cl)cc3)n(-c3ccc(OC)nn3)n2)cc1 | 79.9%
COc1ccc(-n2nc(C(=O)Oc3ccc(C4CCCC4)cc3)cc2-c2ccc(Cl)cc2)nn1 | 86.7%
COc1ccc(-n2nc(C(=O)Oc3cccnc3Cl)cc2-c2ccc(Cl)cc2)nn1 | 86.5%
COc1ccc(-n2nc(C(=O)OCCC(C)C)cc2-c2ccc(Cl)cc2)nn1 | 91.2%
COc1ccc(-n2nc(C(=O)N3CCN(c4ccc(F)cc4)CC3)cc2-c2ccc(Cl)cc2)nn1 | 79.7%

Test system: Platelet
Assay: as §3
Format: functional

Structure (SMILES) | inhibition
COc1ccc(-n2nc(C(=O)N3CCN(c4ncccn4)CC3)cc2-c2ccc(Cl)cc2)nn1 | inactive

Test system: not listed separately
Assay: Antiplatelet activity in human platelet rich plasma assessed as inhibition of collagen-induced platelet aggregation at 10 uM preincubated for 3 mins before collagen challenge by turbidimetric method
Format: functional

Structure (SMILES) | inhibition at 10 µM
COc1ccc(-n2nc(C(=O)Oc3cccc(C(C)C)c3)cc2-c2ccc(Cl)cc2)nn1 | 42.3%
COc1ccc(-n2nc(C(=O)Oc3ccc(C)cc3)cc2-c2ccc(Cl)cc2)nn1 | 48.5%
COc1ccc(OC(=O)c2cc(-c3ccc(Cl)cc3)n(-c3ccc(OC)nn3)n2)cc1 | 24.2%
CCCOc1ccc(OC(=O)c2cc(-c3ccc(Cl)cc3)n(-c3ccc(OC)nn3)n2)cc1 | 61.9%
COc1ccc(-n2nc(C(=O)Oc3ccc4ccccc4c3)cc2-c2ccc(Cl)cc2)nn1 | 22.4%
COc1ccc(-n2nc(C(=O)Oc3ccc(-n4ccnc4)cc3)cc2-c2ccc(Cl)cc2)nn1 | 2.11%
COc1ccc(-n2nc(C(=O)N3CCN(c4ccc(C)cc4)CC3)cc2-c2ccc(Cl)cc2)nn1 | 20.1%
COc1ccc(NC(=O)c2cc(-c3ccc(Cl)cc3)n(-c3ccc(OC)nn3)n2)cc1 | 72.1%
COc1ccc(-n2nc(C(=O)N3CCN(c4ncccn4)CC3)cc2-c2ccc(Cl)cc2)nn1 | 22.9%
COc1ccc(-n2nc(C(=O)Oc3ccc(C4CCCC4)cc3)cc2-c2ccc(Cl)cc2)nn1 | 19.9%
COc1ccc(-n2nc(C(=O)Oc3cccnc3Cl)cc2-c2ccc(Cl)cc2)nn1 | 8.49%
COc1ccc(-n2nc(C(=O)OCCC(C)C)cc2-c2ccc(Cl)cc2)nn1 | 66.7%
COc1ccc(-n2nc(C(=O)N3CCN(c4ccc(F)cc4)CC3)cc2-c2ccc(Cl)cc2)nn1 | 32.2%
